The nature of the data set: recombinant UMI read abundance after kanamycin selection (control-corrected) (log10(CPM+1)); higher = more efficient recombination; extreme values may be limits of the assay; sequences stand for … in AGTGCAGAGAAAATCGGCCAGTTTTCTCTGCCTGCAGTCCGCATGCCGTGGGACCCCTTGGGTTCTAACCTGTTGCCTAGATTTATGCAGCGGACTGCCTTTCTCCCAAAGTGATAAACCGG…AGGTTGGTTTCACT; site = the 11-nt donor. The gist of the method:
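After plating on IPTG (0.07 mM) plus kanamycin, or unselected, in two replicates, recombinant UMIs were PCR-amplified across the donor–target junction and sequenced. The cells were Escherichia coli co-electroporated with a UMI-tagged donor and donor-binding-loop pair library and a target plasmid with a fixed target and T7-inducible IS621 bridge recombinase. Values are log10(CPM+1), with CPM averaged over replicates and scaled by control-derived factors.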
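Further: IS621 bridge recombinase in Escherichia coli cells against a fixed T5 target plasmid.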

Regarding “CGAGAGTCATGGACCGGTTTTCCCGGTAATCCGTATTTGCC (site CGGGAGTCTGG)”, the “recombinant UMI read abundance (log10)” value came to 1.46.
Take “CGAGAGTCATGGACCGGTTTTCCCGGTAATCCGTATTTGCC (site CGTGAGTCTGG)”: the “recombinant UMI read abundance (log10)” value was 2.4.
As to “CGAGCGACATGGACCGGTTTTCCCGGTAATCCGTATTTGTA (site CGAGCGACTTA)”, the “recombinant UMI read abundance (log10)” value was 2.3.
With “CGAGGACCATGGACCGGTTTTCCCGGTAATCCGTATTTGAA (site CGAGGACCTTT)” the figure was 0.0106; with “CGAGGACCATGGACCGGTTTTCCCGGTAATCCGTATTTGGC (site CGAGGACCTAC)”, 0.0204; with “CGAGGACCATGGACCGGTTTTCCCGGTAATCCGTATTTGGC (site CGAGGACCTCC)”, 0.0246.
Take “CGAGGACCATGGACCGGTTTTCCCGGTAATCCGTATTTGGC (site CGAGGACCTGC)”: the “recombinant UMI read abundance (log10)” value turned out to be 0.
For “CGAGGACCATGGACCGGTTTTCCCGGTAATCCGTATTTGGC (site CGAGGACCTTC)”, the “recombinant UMI read abundance (log10)” value worked out at 0.013.
Next, “CGAGGCCCATGGACCGGTTTTCCCGGTAATCCGTATTTGGG (site CGAGGACCTCC)”: 0.0197.
Next, “CGAGGCCCATGGACCGGTTTTCCCGGTAATCCGTATTTGGG (site CGAGGCCCTCC)”: 0.0196; “CGAGGCCCATGGACCGGTTTTCCCGGTAATCCGTATTTGGG (site CGAGGGCCTCC)”: 0.016.
Take “CGAGGCCCATGGACCGGTTTTCCCGGTAATCCGTATTTGGG (site CGAGGTCCTCC)”: the “recombinant UMI read abundance (log10)” value worked out at 0.00542.
With “CGAGTATCATGGACCGGTTTTCCCGGTAATCCGTATTTGCA (site ACAGTATCTTG)” the figure was 2.08; with “CGAGTATCATGGACCGGTTTTCCCGGTAATCCGTATTTGCA (site CGAGTATCTTG)”, 3; with “CGAGTCCCATGGACCGGTTTTCCCGGTAATCCGTATTTGTG (site GTCAGTTCTAG)”, 0.
With “CGATAAACATGGACCGGTTTTCCCGGTAATCCGTATTTGCT (site CGATAAACTAG)”, the “recombinant UMI read abundance (log10)” value was 2.83.
Consider “CGATAAACATGGACCGGTTTTCCCGGTAATCCGTATTTGCT (site CGATCATCTAG)”, for which the “recombinant UMI read abundance (log10)” value was found to be 0.
On to “CGATACACATGGACCGGTTTTCCCGGTAATCCGTATTTGCT (site CGATACACTAG)”, for which the “recombinant UMI read abundance (log10)” value came to 2.54.
As for “CGATAGTCATGGACCGGTTTTCCCGGTAATCCGTATTTGCC (site CGATAGTCTGG)”, the “recombinant UMI read abundance (log10)” value was 2.66.
Next, “CGATCAACATGGACCGGTTTTCCCGGTAATCCGTATTTGCG (site CGATCAACTCG)”: 0.894; “CGATCAACATGGACCGGTTTTCCCGGTAATCCGTATTTGCG (site CGATCATCTAG)”: 0; “CGATCAGCATGGACCGGTTTTCCCGGTAATCCGTATTTGTT (site CGATCAGCTAA)”: 1.59.
Turning to “CGATCAGCATGGACCGGTTTTCCCGGTAATCCGTATTTGTT (site CGATCATCTAG)”, the “recombinant UMI read abundance (log10)” value is 0.
For “CGATCCTCATGGACCGGTTTTCCCGGTAATCCGTATTTGCG (site CGATCATCTAG)”, the “recombinant UMI read abundance (log10)” value is 0.
With “CGATCCTCATGGACCGGTTTTCCCGGTAATCCGTATTTGCG (site CGATCCTCTCG)” the figure was 2.64.
“CGATCCTCATGGACCGGTTTTCCCGGTAATCCGTATTTGCT (site CGATCATCTAG)”: the “recombinant UMI read abundance (log10)” value is 0.
With “CGATCCTCATGGACCGGTTTTCCCGGTAATCCGTATTTGCT (site CGATCCTCTAG)” the figure was 2.82.
With “CGATCCTCATGGACCGGTTTTCCCGGTAATCCGTATTTGCT (site CGATCGTCTAG)” the figure was 0; with “CGATCCTCATGGACCGGTTTTCCCGGTAATCCGTATTTGCT (site CGATCTTCTAG)”, 0; with “CGATCGACATGGACCGGTTTTCCCGGTAATCCGTATTTGAT (site CGATCGACTAA)”, 0.0179.
With “CGATCGACATGGACCGGTTTTCCCGGTAATCCGTATTTGAT (site CGATCGACTAC)” the figure was 0; with “CGATCGACATGGACCGGTTTTCCCGGTAATCCGTATTTGAT (site CGATCGACTAG)”, 0; with “CGATCGACATGGACCGGTTTTCCCGGTAATCCGTATTTGAT (site CGATCGACTAT)”, 0.807.
Consider “CGATCGCCATGGACCGGTTTTCCCGGTAATCCGTATTTGTT (site CGATCGACTAA)”, for which the “recombinant UMI read abundance (log10)” value is 0.0236.
“CGATCGCCATGGACCGGTTTTCCCGGTAATCCGTATTTGTT (site CGATCGCCTAA)”: the “recombinant UMI read abundance (log10)” value stood at 0.142.
Next, “CGATCGCCATGGACCGGTTTTCCCGGTAATCCGTATTTGTT (site CGATCGGCTAA)”: 0; “CGATCGCCATGGACCGGTTTTCCCGGTAATCCGTATTTGTT (site CGATCGTCTAA)”: 1.46.
On to “CGATCGTCATGGACCGGTTTTCCCGGTAATCCGTATTTGCT (site CGATCATCTAG)”, for which the “recombinant UMI read abundance (log10)” value was 2.15.
Next, “CGATCGTCATGGACCGGTTTTCCCGGTAATCCGTATTTGCT (site CGATCCTCTAG)”: 0; “CGATCGTCATGGACCGGTTTTCCCGGTAATCCGTATTTGCT (site CGATCGTCTAG)”: 2.46; “CGATCGTCATGGACCGGTTTTCCCGGTAATCCGTATTTGCT (site CGATCTTCTAG)”: 0.
With “CGATCTACATGGACCGGTTTTCCCGGTAATCCGTATTTGTT (site CGATCAACTAA)” the figure was 0.012; with “CGATCTACATGGACCGGTTTTCCCGGTAATCCGTATTTGTT (site CGATCCACTAA)”, 0.0103.
On to “CGATCTACATGGACCGGTTTTCCCGGTAATCCGTATTTGTT (site CGATCGACTAA)”, for which the “recombinant UMI read abundance (log10)” value turned out to be 0.00912.
With “CGATCTACATGGACCGGTTTTCCCGGTAATCCGTATTTGTT (site CGATCTACTAA)” the figure was 0.246; with “CGATCTGCATGGACCGGTTTTCCCGGTAATCCGTATTTGCT (site CGATCATCTAG)”, 0; with “CGATCTGCATGGACCGGTTTTCCCGGTAATCCGTATTTGCT (site CGATCTGCTAG)”, 1.72.
In the case of “CGATGACCATGGACCGGTTTTCCCGGTAATCCGTATTTGCT (site CGATCATCTAG)”, the “recombinant UMI read abundance (log10)” value was determined as 0.
With “CGATGACCATGGACCGGTTTTCCCGGTAATCCGTATTTGCT (site CGATGACCTAG)” the figure was 0.
Next, “CGATGATCATGGACCGGTTTTCCCGGTAATCCGTATTTGAA (site CGATGATCTTT)”: 2.86; “CGATTAGCATGGACCGGTTTTCCCGGTAATCCGTATTTGCT (site CGATCATCTAG)”: 0; “CGATTAGCATGGACCGGTTTTCCCGGTAATCCGTATTTGCT (site CGATTAGCTAG)”: 0.
With “CGATTATCATGGACCGGTTTTCCCGGTAATCCGTATTTGAC (site CGATTATCTGT)” the figure was 1.98; with “CGATTATCATGGACCGGTTTTCCCGGTAATCCGTATTTGAC (site CTAGTATCTGT)”, 1.07; with “CGATTATCATGGACCGGTTTTCCCGGTAATCCGTATTTGCA (site CGATCATCTAG)”, 0.
As for “CGATTATCATGGACCGGTTTTCCCGGTAATCCGTATTTGCA (site CGATTATCTTG)”, the “recombinant UMI read abundance (log10)” value came to 2.39.
Next, “CGATTATCATGGACCGGTTTTCCCGGTAATCCGTATTTGTT (site CGATCATCTAG)”: 0; “CGATTATCATGGACCGGTTTTCCCGGTAATCCGTATTTGTT (site CGATTATCTAA)”: 2.45.
As for “CGATTTACATGGACCGGTTTTCCCGGTAATCCGTATTTGCT (site CGATTTACTAG)”, the “recombinant UMI read abundance (log10)” value stood at 1.76.
With “CGCAATCCATGGACCGGTTTTCCCGGTAATCCGTATTTGAG (site CGCAATCCTCT)” the figure was 0.964; with “CGCACATCATGGACCGGTTTTCCCGGTAATCCGTATTTGCT (site CGAACATCTAG)”, 0.
Next, “CGCACATCATGGACCGGTTTTCCCGGTAATCCGTATTTGCT (site CGCACATCTAG)”: 1.02; “CGCACATCATGGACCGGTTTTCCCGGTAATCCGTATTTGCT (site CGGACATCTAG)”: 0.
Next, “CGCACATCATGGACCGGTTTTCCCGGTAATCCGTATTTGCT (site CGTACATCTAG)”: 0; “CGCACTCCATGGACCGGTTTTCCCGGTAATCCGTATTTGTT (site CGCACTCCTAA)”: 0.808.
With “CGCACTCCATGGACCGGTTTTCCCGGTAATCCGTATTTGTT (site CGGAATCCTAA)”, the “recombinant UMI read abundance (log10)” value turned out to be 0.
Next, “CGCATCACATGGACCGGTTTTCCCGGTAATCCGTATTTGCC (site CGCATCACTGG)”: 1.78.
With “CGCATCTCATGGACCGGTTTTCCCGGTAATCCGTATTTGTG (site CGCATCTCTCA)” the figure was 1.83.
